According to US12195482B1 (Arcus Biosciences, Inc., priority 2022, dated 2025):

Columns and labels:
p-AXL = target: T1, p-AXL (Homo sapiens, UniProt P30530); assay: Axl phosphorylation inhibition ELISA in HEK293T cells transfected with NanoLuc-tagged AXL; assay type: cell-based; conditions: 1 h compound incubation, media (OptiMEM)
T1 construct: expressed in transfected cells; host or cells: HEK293T
T1 sequence (P30530 26-894): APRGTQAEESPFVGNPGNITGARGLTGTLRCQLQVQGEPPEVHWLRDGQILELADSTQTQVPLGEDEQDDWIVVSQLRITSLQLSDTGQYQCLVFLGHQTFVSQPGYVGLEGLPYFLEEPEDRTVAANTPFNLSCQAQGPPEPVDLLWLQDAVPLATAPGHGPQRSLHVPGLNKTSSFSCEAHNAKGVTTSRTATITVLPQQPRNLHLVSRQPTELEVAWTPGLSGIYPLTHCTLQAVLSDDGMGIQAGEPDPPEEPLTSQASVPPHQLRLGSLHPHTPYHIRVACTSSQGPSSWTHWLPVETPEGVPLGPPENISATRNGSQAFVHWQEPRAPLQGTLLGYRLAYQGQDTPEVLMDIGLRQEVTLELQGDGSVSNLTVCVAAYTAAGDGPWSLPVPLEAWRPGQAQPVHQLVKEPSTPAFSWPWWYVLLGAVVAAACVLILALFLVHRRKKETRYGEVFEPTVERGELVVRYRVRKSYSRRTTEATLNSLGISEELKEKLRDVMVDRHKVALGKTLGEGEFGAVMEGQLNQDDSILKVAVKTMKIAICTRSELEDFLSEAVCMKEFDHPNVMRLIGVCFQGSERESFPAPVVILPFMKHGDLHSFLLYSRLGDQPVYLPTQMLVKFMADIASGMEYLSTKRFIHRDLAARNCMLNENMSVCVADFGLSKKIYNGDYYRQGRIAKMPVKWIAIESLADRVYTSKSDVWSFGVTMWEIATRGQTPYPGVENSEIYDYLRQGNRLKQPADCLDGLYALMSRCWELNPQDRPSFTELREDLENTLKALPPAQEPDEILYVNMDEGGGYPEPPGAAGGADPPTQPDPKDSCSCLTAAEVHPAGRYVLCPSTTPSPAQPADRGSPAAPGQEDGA
Method in brief: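 HEK293T cells transiently transfected one day earlier with NanoLuc-tagged AXL were exposed to 22-point 2-fold compound dilutions for 1 h at 37° C (70,000 cells/well), then lysed. Lysates captured on anti-phospho-tyrosine coated plates for 2 h; bound p-AXL read by NanoLuc luminescence; IC50 from 4-parameter logistic fit.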

Axl = target: T2, Axl (Homo sapiens, UniProt P30530); assay: Biochemical potency, HTRF KinEASE-TK kinase assay; set-up: purchased Invitrogen; conditions: 5 nM AXL, 700 μM ATP
T2 sequence (P30530 26-894): T1 sequence (P30530 26-894)
Method in brief: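 HTRF 665/620 readout after a 2 h RT kinase reaction (final 700 μM ATP, 800 nM biotinylated TK substrate, 1% DMSO, HEPES pH 7.4 buffer) gave percent activity. Final enzyme was 5 nM for AXL, 1 nM for TYRO3 or MER, each preincubated 1 h with compound.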

| IC50 (p-AXL) [nM] | IC50 (Axl) [nM] | SMILES |
| --- | --- | --- |
| < 100 | < 100 | COc1ccnc(-c2ccc(-c3n[nH]c4ncc(-c5ccc6c(c5)CC[C@@H](N5C7COCC5C7)CC6)cc34)cc2)c1OC [Example 152, 6-[(7S)-2-{3-[4-(3,4-Dimethoxypyridin-2-yl)phenyl]-1H-pyrazolo[3,4-b]pyridin-5-yl}-6,7,8,9-tetrahydro-5H-benzo[7]annulen-7-yl]-3-oxa-6-azabicyclo[3.1.1]heptane] |
| 100 to 1000 | < 100 | Cc1ccc(C)c(-c2ccc(-c3c[nH]c4ncc(-c5ccc6c(c5)CC[C@@H](N5CCCC5)CC6)cc34)cc2)n1 [Example 148, 3,6-Dimethyl-2-(4-{5-[(7S)-7-(pyrrolidin-1-yl)-6,7,8,9-tetrahydro-5H-benzo[7]annulen-2-yl]-1H-pyrrolo[2,3-b]pyridin-3-yl}phenyl)pyridine] |
| > 1000 | < 100 | Cc1cccnc1-c1ccc(-c2c[nH]c3nnc(-c4ccc5c(c4)CC[C@@H](N4C6COCC4C6)CC5)cc23)cc1 [Example 36, 6-[(7S)-3-[5-[4-(3-Methylpyridin-2-yl)phenyl]-7H-pyrrolo[2,3-c]pyridazin-3-yl]-6,7,8,9-tetrahydro-5H-benzo[7]annulen-7-yl]-3-oxa-6-azabicyclo[3.1.1]heptane] |
| < 100 | < 100 | Cc1cccnc1-c1cccc(-c2c[nH]c3ncc(-c4ccc5c(c4)CC[C@@H](N4C6COCC4C6)CC5)cc23)c1 [Example 82, 6-[(7S)-2-{3-[3-(3-Methylpyridin-2-yl)phenyl]-1H-pyrrolo[2,3-b]pyridin-5-yl}-6,7,8,9-tetrahydro-5H-benzo[7]annulen-7-yl]-3-oxa-6-azabicyclo[3.1.1]heptane] |
| 100 to 1000 | < 100 | Cc1ccc(C(F)(F)F)nc1-c1ccc(-c2n[nH]c3ncc(-c4ccc5c(c4)CC[C@@H](N4C6COC[C@H]4C6)CC5)cc23)cc1 [Example 145, (1R)-6-[(7S)-2-(3-{4-[3-Methyl-6-(trifluoromethyl)pyridin-2-yl]phenyl}-1H-pyrazolo[3,4-b]pyridin-5-yl)-6,7,8,9-tetrahydro-5H-benzo[7]annulen-7-yl]-3-oxa-6-azabicyclo[3.1.1]heptane] |
| < 100 | < 100 | Cc1ccc(C#N)c(-c2ccc(-c3n[nH]c4ncc(-c5ccc6c(c5)CC[C@@H](N5C7COCC5C7)CC6)cc34)cc2)n1 [Example 70, 6-Methyl-2-(4-{5-[(7S)-7-{3-oxa-6-azabicyclo[3.1.1]heptan-6-yl}-6,7,8,9-tetrahydro-5H-benzo[7]annulen-2-yl]-1H-pyrazolo[3,4-b]pyridin-3-yl}phenyl)pyridine-3-carbonitrile] |
| 100 to 1000 | < 100 | Cc1ccc(N2CCCC2=O)c(-c2ccc(-c3n[nH]c4ncc(-c5ccc6c(c5)CC[C@@H](N5C7COCC5C7)CC6)cc34)cc2)n1 [Example 198, 1-[6-Methyl-2-(4-{5-[(7S)-7-{3-oxa-6-azabicyclo[3.1.1]heptan-6-yl}-6,7,8,9-tetrahydro-5H-benzo[7]annulen-2-yl]-1H-pyrazolo[3,4-b]pyridin-3-yl}phenyl)pyridin-3-yl]pyrrolidin-2-one] |
| < 100 | < 100 | Cc1cccnc1-c1cnc(-c2n[nH]c3ncc(-c4ccc5c(c4)CC[C@@H](N4C6COCC4C6)CC5)cc23)cn1 [Example 193, 6-[(7S)-2-{3-[5-(3-Methylpyridin-2-yl)pyrazin-2-yl]-1H-pyrazolo[3,4-b]pyridin-5-yl}-6,7,8,9-tetrahydro-5H-benzo[7]annulen-7-yl]-3-oxa-6-azabicyclo[3.1.1]heptane] |
| < 100 | < 100 | Cc1cccnc1-c1ccc(-c2c[nH]c3ncc(-c4ccc5c(c4)CC[C@@H](N4C6COCC4C6)CC5)cc23)c(F)c1 [Example 153, 6-[(7S)-2-{3-[2-Fluoro-4-(3-methylpyridin-2-yl)phenyl]-1H-pyrrolo[2,3-b]pyridin-5-yl}-6,7,8,9-tetrahydro-5H-benzo[7]annulen-7-yl]-3-oxa-6-azabicyclo[3.1.1]heptane] |
| 100 to 1000 | < 100 | Cc1cnc(-c2ccc(-c3n[nH]c4ncc(-c5ccc6c(c5)CC[C@@H](N5C7COCC5C7)CC6)cc34)cc2)c(C)n1 [Example 190, 6-[(7S)-2-{3-[4-(3,5-Dimethylpyrazin-2-yl)phenyl]-1H-pyrazolo[3,4-b]pyridin-5-yl}-6,7,8,9-tetrahydro-5H-benzo[7]annulen-7-yl]-3-oxa-6-azabicyclo[3.1.1]heptane] |
| 100 to 1000 | < 100 | Cc1ncccc1-c1ccc(-c2c[nH]c3ncc(-c4ccc5c(c4)CC[C@@H](N4C6COCC4C6)CC5)cc23)cc1 [Example 74, 6-[(7S)-2-{3-[4-(2-Methylpyridin-3-yl)phenyl]-1H-pyrrolo[2,3-b]pyridin-5-yl}-6,7,8,9-tetrahydro-5H-benzo[7]annulen-7-yl]-3-oxa-6-azabicyclo[3.1.1]heptane] |
| < 100 | < 100 | Cc1cccnc1-c1ccc(-c2n[nH]c3ncc(-c4ccc5c(c4)CC[C@@H](N[C@H]4CCCOC4)CC5)cc23)nc1 [Example 106, (3S)—N-[(7S)-2-(3-{3-Methyl-[2,3′-bipyridin]-6′-yl}-1H-pyrazolo[3,4-b]pyridin-5-yl)-6,7,8,9-tetrahydro-5H-benzo[7]annulen-7-yl]oxan-3-amine] |
| < 100 | < 100 | Cn1ncnc1-c1ccc(-c2n[nH]c3ncc(-c4ccc5c(c4)CC[C@@H](N4C[C@@H]6C[C@H]4CO6)CC5)cc23)cc1 [Example 135, (1S,4S)-5-[(7S)-2-{3-[4-(1-Methyl-1H-1,2,4-triazol-5-yl)phenyl]-1H-pyrazolo[3,4-b]pyridin-5-yl}-6,7,8,9-tetrahydro-5H-benzo[7]annulen-7-yl]-2-oxa-5-azabicyclo[2.2.1]heptane] |
| < 100 | < 100 | Cc1ccc(C)c(-c2ccc(-c3c[nH]c4ncc(-c5ccc6c(c5)CC[C@@H](N5C7COCC5C7)CC6)cc34)cc2)n1 [Example 137, 6-[(7S)-2-{3-[4-(3,6-Dimethylpyridin-2-yl)phenyl]-1H-pyrrolo[2,3-b]pyridin-5-yl}-6,7,8,9-tetrahydro-5H-benzo[7]annulen-7-yl]-3-oxa-6-azabicyclo[3.1.1]heptane] |
| < 100 | < 100 | Cc1cccnc1-c1cccc(-c2n[nH]c3ncc(-c4ccc5c(c4)CC[C@@H](N4C6COCC4C6)CC5)cc23)c1 [Example 81, 6-[(7S)-2-{3-[3-(3-Methylpyridin-2-yl)phenyl]-1H-pyrazolo[3,4-b]pyridin-5-yl}-6,7,8,9-tetrahydro-5H-benzo[7]annulen-7-yl]-3-oxa-6-azabicyclo[3.1.1]heptane] |
| < 100 | < 100 | Cc1ccc[n+]([O-])c1-c1ccc(-c2c[nH]c3ncc(-c4ccc5c(c4)CC[C@@H](N4C6COCC4C6)CC5)cc23)cc1 [Example 16, 3-Methyl-2-(4-{5-[(7S)-7-{3-oxa-6-azabicyclo[3.1.1]heptan-6-yl}-6,7,8,9-tetrahydro-5H-benzo[7]annulen-2-yl]-1H-pyrrolo[2,3-b]pyridin-3-yl}phenyl)pyridin-1-ium-1-olate] |
| < 100 | < 100 | Cc1cc(=O)n(C)nc1-c1ccc(-c2c[nH]c3ncc(-c4ccc5c(c4)CC[C@@H](N4C6COCC4C6)CC5)cc23)cc1 [Example 20, 2,5-Dimethyl-6-(4-{5-[(7S)-7-{3-oxa-6-azabicyclo[3.1.1]heptan-6-yl}-6,7,8,9-tetrahydro-5H-benzo[7]annulen-2-yl]-1H-pyrrolo[2,3-b]pyridin-3-yl}phenyl)-2,3-dihydropyridazin-3-one] |
| < 100 | < 100 | Cc1ccc(C)c(-c2ccc(-c3c[nH]c4ncc(-c5ccc6c(c5)CC[C@@H](N5C7COC[C@H]5C7)CC6)cc34)nc2)n1 [Example 142, 3,6-Dimethyl-6′-{5-[(7S)-7-[(1R)-3-oxa-6-azabicyclo[3.1.1]heptan-6-yl]-6,7,8,9-tetrahydro-5H-benzo[7]annulen-2-yl]-1H-pyrrolo[2,3-b]pyridin-3-yl}-2,3′-bipyridine] |
| 100 to 1000 | < 100 | Cc1cccnc1-c1ccc(-c2n[nH]c3ncc(-c4ccc5c(c4)CCC(N4CCCC4)C5)cc23)cc1 (centres unmarked) [Example 19, 3-Methyl-2-(4-{5-[6-(pyrrolidin-1-yl)-5,6,7,8-tetrahydronaphthalen-2-yl]-1H-pyrazolo[3,4-b]pyridin-3-yl}phenyl)pyridine] |
